Measurements: article PMC11284788, “NN1213 – A Potent, Long-Acting, and Selective Analog of Human Amylin” (Journal of Medicinal Chemistry, 2024)
Like-named read-outs stand apart in the source and are kept apart here. Values belong to the compound of their own block, whether it stands above or below them.

Key:
rats = experiment: Acute food intake in rats; format: in vivo, rat
cAMY1R = experiment: Whole-cell competition binding, cAMY1R; conditions: IC50 for the CTR divided by that of the AMYR, canine receptors
cAMY3R = experiment: Whole-cell competition binding, cAMY3R; conditions: IC50 for the CTR divided by that of the AMYR, canine receptors
in vivo [1] = conditions: female, New Zealand white, rabbit, iv
in vivo [2] = conditions: male, Göttingen, minipig, iv
Pharmacokinetics in rats = conditions: male, Sprague-Dawley, rat, plasma, sc, 5 nmol/kg
beagle dogs = experiment: Acute dog food intake assay
rAMY1R [3] = biological target: T1, rAMY1R (Rattus norvegicus, UniProt P32214+Q9JJ74); experiment: Species-specific cAMP assay, rAMY1R; conditions: ratio of cAMP EC50 values, rat receptors
T1 sequence (P32214 25-516): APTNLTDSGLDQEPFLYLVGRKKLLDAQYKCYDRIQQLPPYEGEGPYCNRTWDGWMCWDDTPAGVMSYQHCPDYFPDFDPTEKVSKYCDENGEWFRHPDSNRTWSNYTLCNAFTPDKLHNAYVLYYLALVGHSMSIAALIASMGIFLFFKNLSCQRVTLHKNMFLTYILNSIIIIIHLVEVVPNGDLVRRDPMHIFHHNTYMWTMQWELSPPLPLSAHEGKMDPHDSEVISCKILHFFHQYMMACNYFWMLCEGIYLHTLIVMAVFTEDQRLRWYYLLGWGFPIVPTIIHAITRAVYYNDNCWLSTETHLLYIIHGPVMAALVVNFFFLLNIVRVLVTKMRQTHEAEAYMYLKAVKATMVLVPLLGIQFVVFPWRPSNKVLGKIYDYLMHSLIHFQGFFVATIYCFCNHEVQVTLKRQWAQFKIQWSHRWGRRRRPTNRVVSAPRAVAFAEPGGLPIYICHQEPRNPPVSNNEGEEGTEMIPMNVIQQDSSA
T1 sequence (Q9JJ74 27-148 partner): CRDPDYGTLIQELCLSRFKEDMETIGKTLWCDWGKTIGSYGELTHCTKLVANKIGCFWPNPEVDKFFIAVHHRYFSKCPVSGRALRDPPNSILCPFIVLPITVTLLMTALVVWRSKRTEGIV

rAMY1R [4] = biological target: T1, rAMY1R; experiment: Whole-cell competition binding, rAMY1R; set-up: expressed in transfected cells; host or cells: BHK tk-ts 13 cells, transient, FuGENE 6; conditions: IC50 for the CTR divided by that of the AMYR, rat receptors
hAMY1R = hAMY1R (Homo sapiens, UniProt O60894+P30988); experiment: Whole-cell competition binding, hAMY1R; set-up: expressed in transfected cells; host or cells: BHK tk-ts 13, transient co-transfection (FuGENE 6); conditions: IC50 for the CTR divided by that of the AMYR, human receptors
hAMY3R = biological target: T2, hAMY3R (Homo sapiens, UniProt O60896+P30988); experiment: Whole-cell competition binding, hAMY3R; set-up: expressed in transfected cells; host or cells: BHK tk-ts 13, transient co-transfection; whole cells for the species-specific assays; conditions: IC50 for the CTR divided by that of the AMYR, human receptors
T2 sequence (P30988 25-474): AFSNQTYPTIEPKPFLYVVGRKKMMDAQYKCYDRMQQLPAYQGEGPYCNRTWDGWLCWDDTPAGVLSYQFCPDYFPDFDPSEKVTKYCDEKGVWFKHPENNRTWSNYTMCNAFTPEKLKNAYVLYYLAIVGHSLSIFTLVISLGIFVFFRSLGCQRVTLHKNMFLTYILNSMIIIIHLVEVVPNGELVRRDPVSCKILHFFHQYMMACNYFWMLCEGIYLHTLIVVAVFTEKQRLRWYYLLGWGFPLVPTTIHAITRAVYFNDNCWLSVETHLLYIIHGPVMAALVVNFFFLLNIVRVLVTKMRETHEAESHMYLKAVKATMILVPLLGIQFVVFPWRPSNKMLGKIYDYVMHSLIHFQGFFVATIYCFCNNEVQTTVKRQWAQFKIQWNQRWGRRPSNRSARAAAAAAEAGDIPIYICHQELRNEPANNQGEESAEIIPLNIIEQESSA
T2 sequence (O60896 24-148 partner): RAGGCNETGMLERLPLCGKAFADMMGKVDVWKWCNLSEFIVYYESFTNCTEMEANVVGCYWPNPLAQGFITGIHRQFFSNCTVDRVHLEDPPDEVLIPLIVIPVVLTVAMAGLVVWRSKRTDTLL

hCTR = biological target: T3, hCTR (Homo sapiens, UniProt P30988); experiment: cAMP-responsive element luciferase reporter assay, human CTR; format: cell-based; conditions: luciferase (human receptor assay); for hCTR pEC50: Tables S12 and S14
T3 sequence (P30988 25-474): T2 sequence (P30988 25-474)

rat CTR = biological target: T4, rat CTR (Rattus norvegicus, UniProt P32214); experiment: cAMP FlashPlate assay, rat CTR; format: cell-based; conditions: cAMP (rat receptor assay)
T4 construct: expressed in transfected cells; host or cells: BHK tk-ts 13, transient (FuGENE 6)
T4 sequence (P32214 25-479 isoform P32214-2 limits assumed): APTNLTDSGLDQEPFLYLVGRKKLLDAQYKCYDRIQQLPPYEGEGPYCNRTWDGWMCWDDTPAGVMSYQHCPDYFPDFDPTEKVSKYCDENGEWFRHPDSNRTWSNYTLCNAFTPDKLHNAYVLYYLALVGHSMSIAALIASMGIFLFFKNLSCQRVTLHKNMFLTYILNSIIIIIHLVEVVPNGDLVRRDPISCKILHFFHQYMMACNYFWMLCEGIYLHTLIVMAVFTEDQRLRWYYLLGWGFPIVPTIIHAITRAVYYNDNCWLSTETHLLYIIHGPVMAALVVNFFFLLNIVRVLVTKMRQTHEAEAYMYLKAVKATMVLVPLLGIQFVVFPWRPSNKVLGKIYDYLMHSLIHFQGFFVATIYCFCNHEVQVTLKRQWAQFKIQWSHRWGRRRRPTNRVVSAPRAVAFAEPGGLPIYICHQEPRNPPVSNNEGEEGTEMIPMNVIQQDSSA

[5] = Tables S12 and S14, read-out: rCTR pEC50 (converted)
[6] = transiently transfected BHK tk-ts 13 cells, FlashPlate, 30 min room temperature, 2% HSA, read-out: rCTR EC50
[7] = single sc injection of 30 nmol/kg, relative to vehicle, mean ± SEM, n = 5–7 per group

hAMY1R, sequence (O60894 27-148 partner, one chain of several): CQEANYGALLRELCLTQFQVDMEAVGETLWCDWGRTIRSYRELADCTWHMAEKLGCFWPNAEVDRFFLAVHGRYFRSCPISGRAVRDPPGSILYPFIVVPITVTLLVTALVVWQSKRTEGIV

Structure (SMILES): CC[C@H](C)[C@H](NC(=O)[C@H](C)NC(=O)CNC(=O)[C@H](Cc1ccccc1)NC(=O)[C@H](CC(N)=O)NC(=O)[C@@H]1CCCN1C(=O)[C@H](CO)NC(=O)[C@H](CO)NC(=O)[C@H](Cc1c[nH]cn1)NC(=O)[C@H](CCCNC(=N)N)NC(=O)[C@H](CC(C)C)NC(=O)[C@H](Cc1ccccc1)NC(=O)[C@H](CC(=O)O)NC(=O)[C@H](C)NC(=O)[C@H](CC(C)C)NC(=O)[C@H](CCCNC(=N)N)NC(=O)[C@H](CCC(N)=O)NC(=O)[C@@H](NC(=O)[C@H](C)NC(=O)[C@@H]1CSSC[C@H](NC(=O)[C@@H](N)CCCCNC(=O)CC[C@H](NC(=O)CC[C@H](NC(=O)CCCCCCCCCCCCCCCCCCC(=O)O)C(=O)O)C(=O)O)C(=O)N[C@@H](CC(N)=O)C(=O)N[C@@H]([C@@H](C)O)C(=O)N[C@@H](C)C(=O)N[C@@H]([C@@H](C)O)C(=O)N1)[C@@H](C)O)C(=O)N1CCC[C@H]1C(=O)N[C@@H](CO)C(=O)N[C@@H](CO)C(=O)N[C@H](C(=O)N[C@@H](CC(N)=O)C(=O)N[C@H](C(=O)NCC(=O)N[C@@H](CO)C(=O)N[C@@H](CCCNC(=N)N)C(=O)N[C@H](C(=O)N[C@@H](Cc1ccc(O)cc1)C(N)=O)[C@@H](C)O)C(C)C)[C@@H](C)O [NN1213]
- food intake reduction, following 24 h (rats; single sc dose 3 nmol/kg, 24–48 h, compared to controls): 15%
- food intake reduction, first 24 h (rats; single sc dose 3 nmol/kg, compared to controls): 25%
- food intake reduction, first 24 h (rats; single sc dose 100 nmol/kg): 70%
- Ratio CTR/AMY1R (canine, binding) (cAMY1R): 73
- Ratio CTR/AMY3R (canine, binding) (cAMY3R): 40
- half-life (in vivo [1]): 49 h
- half-life (in vivo [2]): 116 h
- bioavailability (Pharmacokinetics in rats): ~40%
- food intake reduction, first 48 h (beagle dogs; single sc administration 300 nmol/kg, four meals over 48 h): 90%
- effect on appetite (beagle dogs; single sc dose 3 nmol/kg): did not affect appetite
- duration of appetite suppression (beagle dogs; single sc dose 30 nmol/kg): at least 7 days
- tolerability (discomfort, vomiting) (beagle dogs; single sc dose ranging from 3 to 300 nmol/kg): not associated with any signs of discomfort in the dogs and no vomiting
- Ratio CTR/AMY1R (rat, functional) (rAMY1R [3]): 336
- Ratio CTR/AMY1R (rat, binding) (rAMY1R [4]): 190
- Ratio CTR/AMY1R (human, binding) (hAMY1R): 120
- Ratio CTR/AMY3R (human, binding) (hAMY3R): 67

- hCTR pEC50 (hCTR): 8.58
- EC50 (hCTR; BHK cells stably expressing hCTR and CRE-luciferase, 3 h, 37 °C, 10% FBS, read-out: hCTR EC50): 2.61 nM
- EC50 (rat CTR; [5]): 30.2 nM
- EC50 (rat CTR; [6]): 30.4 nM
Structure (SMILES): CC[C@H](C)[C@H](NC(=O)[C@H](C)NC(=O)CNC(=O)[C@H](Cc1ccccc1)NC(=O)[C@H](CC(N)=O)NC(=O)[C@@H]1CCCN1C(=O)[C@H](CO)NC(=O)[C@H](CO)NC(=O)[C@H](Cc1c[nH]cn1)NC(=O)[C@H](CCCNC(=N)N)NC(=O)[C@H](CC(C)C)NC(=O)[C@H](Cc1ccccc1)NC(=O)[C@H](CC(N)=O)NC(=O)[C@H](C)NC(=O)[C@H](CC(C)C)NC(=O)[C@H](CCCNC(=N)N)NC(=O)[C@H](CCC(N)=O)NC(=O)[C@@H](NC(=O)[C@H](C)NC(=O)[C@@H]1CSSC[C@H](NC(=O)[C@H](CCCCN)NC(=O)CC[C@H](NC(=O)CCCCCCCCCCCCCCCCCCC(=O)O)C(=O)O)C(=O)N[C@@H](CC(N)=O)C(=O)N[C@@H]([C@@H](C)O)C(=O)N[C@@H](C)C(=O)N[C@@H]([C@@H](C)O)C(=O)N1)[C@@H](C)O)C(=O)N1CCC[C@H]1C(=O)N[C@@H](CO)C(=O)N[C@@H](CO)C(=O)N[C@H](C(=O)N[C@@H](CC(N)=O)C(=O)N[C@H](C(=O)NCC(=O)N[C@@H](CO)C(=O)N[C@@H](CCCCN)C(=O)N[C@H](C(=O)N[C@@H](Cc1ccc(O)cc1)C(N)=O)[C@@H](C)O)C(C)C)[C@@H](C)O [Peptide 13]
- Acute food intake reduction 0–24 h (rats; [7]): 37 ± 7%
- Acute food intake reduction 24–48 h (rats; [7]): 25 ± 7%

- hCTR pEC50 (hCTR): 8.26
- EC50 (rat CTR; [5]): 37.2 nM
- EC50 (rat CTR; [6]): 37.2 nM
Structure (SMILES): CC[C@H](C)[C@H](NC(=O)[C@H](C)NC(=O)CNC(=O)[C@H](Cc1ccccc1)NC(=O)[C@H](CC(N)=O)NC(=O)[C@@H]1CCCN1C(=O)[C@H](CO)NC(=O)[C@H](CO)NC(=O)[C@H](Cc1c[nH]cn1)NC(=O)[C@H](CCCNC(=N)N)NC(=O)[C@H](CC(C)C)NC(=O)[C@H](Cc1ccccc1)NC(=O)[C@H](CC(N)=O)NC(=O)[C@H](C)NC(=O)[C@H](CC(C)C)NC(=O)[C@H](CCCNC(=N)N)NC(=O)[C@H](CCC(N)=O)NC(=O)[C@@H](NC(=O)[C@H](C)NC(=O)[C@@H]1CSSC[C@H](NC(=O)[C@@H](N)CCCCNC(=O)CC[C@H](NC(=O)CCCCCCCCCCCCCCCCCCC(=O)O)C(=O)O)C(=O)N[C@@H](CC(N)=O)C(=O)N[C@@H]([C@@H](C)O)C(=O)N[C@@H](C)C(=O)N[C@@H]([C@@H](C)O)C(=O)N1)[C@@H](C)O)C(=O)N1CCC[C@H]1C(=O)N[C@@H](CO)C(=O)N[C@@H](CO)C(=O)N[C@H](C(=O)N[C@@H](CC(N)=O)C(=O)N[C@H](C(=O)NCC(=O)N[C@@H](CO)C(=O)N[C@@H](CCCCN)C(=O)N[C@H](C(=O)N[C@@H](Cc1ccc(O)cc1)C(N)=O)[C@@H](C)O)C(C)C)[C@@H](C)O [Peptide 14]
- Acute food intake reduction 24–48 h (rats; [7]): 15 ± 4%
